Source: PMC11845761, “Intestinal human carboxylesterase 2 (CES2) expression rescues drug metabolism and most metabolic syndrome phenotypes in global Ces2 cluster knockout mice” (Acta Pharmacologica Sinica, 2024)

Details: irinotecan i.v. or orally administered; Ces2^–/– vs wild-type mice; data not shown

CCc1c2c(nc3ccc(O)cc13)-c1cc3c(c(=O)n1C2)COC(=O)[C@]3(O)CC [SN-38]
effect of mCes2 cluster knockout on plasma levels: no significant effect
